Data taken from US20130236568A1, “PHOSPHAPLATINS HAVING ANTI-ANGIOGENIC, ANTI-METASTATIC, AND PRO-APOPTOTIC PROPERTIES AND USES THEREOF” (Ohio University, priority 2011, published 2013).

Key:
Type in all cases: cell-based, human
[1] = system: VEGFR2 gene; assay: Quantitative real-time PCR, VEGFR2 gene expression in HUVEC cells
Description: (§1) Evaluations of selected gene expressions in Human Umbilical Vein Endothelial Cells (HUVEC) and Human Ovarian Cancer Cells by quantitative reverse transcriptase polymerase chain reaction (PCR)
(§2) Quantitative real-time PCR experiments were performed to estimate the expression of a selection of targeted genes. HUVEC cells (Lonza Walkersville, Frederick, Md.) were cultured on 0.1% gelatin-coated petri dishes by following standard protocols recommended by the vendor in a humidified incubator by maintaining 5% CO2 at 37° C. […]
(§3) Both treated and untreated cancer cells were maintained in RPMI 1640 medium with 10% fetal bovine serum, 2 μmol L-glutamine, 100 units/mL penicillin-streptomycin and 0.25 units/mL insulin solution, at 37° C. with 5% CO2. […] The quantity and purity of RNA were determined by UV spectroscopy (NanoDrop 2000 Thermo Scientific, Wilmington, Del.). A minimum absorbance ratio index (ratio of the absorbance measured at 260 nm over that at 280 nm) of 1.9 was used as an acceptable purity. […] The target gene was labeled with a blue dye (FAM, absorbance: 494 nm, emission: 518 nm) while the reference gene was tagged with a green dye (VIC, absorbance: 538 nm, emission: 554 nm). […]
(§4) The threshold cycle number (Ct), the point at which the fluorescence of the qPCR reaction just exceeds the threshold fluorescence of the detection system, was determined. […]

[2] = system: BID; assay: Expression of key genes with and without p53 inhibitor (Table 3): BID; details: positive = manifold increase, negative = decrease vs untreated cells
Description: (§5) Quantitative real-time PCR experiments were performed to estimate the expression of a selection of targeted genes. HUVEC cells (Lonza Walkersville, Frederick, Md.) were cultured on 0.1% gelatin-coated petri dishes by following standard protocols recommended by the vendor in a humidified incubator by maintaining 5% CO2 at 37° C. Human epithelial ovarian cancer cells (A2780) and cisplatin-resistant cells (A2780/C30) were cultured in RPMI 1640 with or without cisplatin (7 μM) and pyrodach-4 (180 μM) for 0, 3, 12 and 24 hours. […] HUVECs were treated with or without cisplatin (7 μM) or pyrodach-4 (90 or 180 μM) for various durations ranging from 1 hr. to 6 hrs.
as §3, with “CO2. RNA was isolated from both the treated and untreated cells.” for “CO2.”

[3] = system: FasL; assay: Expression of key genes with and without p53 inhibitor (Table 3): FasL; details: positive = manifold increase, negative = decrease vs untreated cells
Description: as §5
as §3, with “CO2. RNA was isolated from both the treated and untreated cells.” for “CO2.”

[4] = system: BAX; assay: Quantitative real-time PCR, Bax expression in HUVEC; details: HUVEC treated with pyrodach-4
Description: as §1, §2, §3, §4

[5] = system: PUMA; assay: Expression of key genes with and without p53 inhibitor (Table 3): PUMA; details: positive = manifold increase, negative = decrease vs untreated cells
Description: as §5
as §3, with “CO2. RNA was isolated from both the treated and untreated cells.” for “CO2.”

Substance: trans-(±)-1,2-cyclohexanediamine-trans-dihydroxo(pyrophosphato) platinum(IV) [Pyrodach-4]
- Suppression of VEGFR-2 expression [1]: ≤ 50%
- Normalized expression of VEGFR2 gene ([1]; positive = manifold increase, negative = relative decrease vs untreated cells, pyrodach-4 90 or 180 μM, 1 to 6 hrs): −2.0
- Expression of BID ([2]; Pyrodach-4 + PFT-α): 1.0
- Expression of BID ([2]; Pyrodach-4 treatment only): 1.8
- Expression of FasL ([3]; Pyrodach-4 + PFT-α): undetectable
- Expression of FasL ([3]; Pyrodach-4 treatment only): 4.6
- Over-expression of Bax [4]: 2-3 fold
- Expression of PUMA ([5]; Pyrodach-4 + PFT-α): 4.4
- Expression of PUMA ([5]; Pyrodach-4 treatment only): 16.6
